Drawing on ChEMBL document CHEMBL1201862, “PubChem BioAssay data set” (2004), this text covers AC50, CC50 and EC50 for 26 compounds.

Activity calls are given as the source filed them.

Some targets named below: Cytochrome P450 2D6 (Homo sapiens, UniProt P10635); Cytochrome P450 3A4 (Homo sapiens, UniProt P08684); Cytochrome P450 2C9 (Homo sapiens, UniProt P11712).
Series [1] in a line: HEp-2 cell cytotoxicity, dose response, cytotoxicity control for RSV inhibitor project, HTS (AID 2410). The class given is functional. The note with it: human respiratory syncytial virus.
The target of another series is T1, Cytochrome P450 1A2 (Homo sapiens, UniProt P05177).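 Also: PubChem cytochrome P450 panel assay, CYP1A2 panel member.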
T1 sequence (P05177 whole entry): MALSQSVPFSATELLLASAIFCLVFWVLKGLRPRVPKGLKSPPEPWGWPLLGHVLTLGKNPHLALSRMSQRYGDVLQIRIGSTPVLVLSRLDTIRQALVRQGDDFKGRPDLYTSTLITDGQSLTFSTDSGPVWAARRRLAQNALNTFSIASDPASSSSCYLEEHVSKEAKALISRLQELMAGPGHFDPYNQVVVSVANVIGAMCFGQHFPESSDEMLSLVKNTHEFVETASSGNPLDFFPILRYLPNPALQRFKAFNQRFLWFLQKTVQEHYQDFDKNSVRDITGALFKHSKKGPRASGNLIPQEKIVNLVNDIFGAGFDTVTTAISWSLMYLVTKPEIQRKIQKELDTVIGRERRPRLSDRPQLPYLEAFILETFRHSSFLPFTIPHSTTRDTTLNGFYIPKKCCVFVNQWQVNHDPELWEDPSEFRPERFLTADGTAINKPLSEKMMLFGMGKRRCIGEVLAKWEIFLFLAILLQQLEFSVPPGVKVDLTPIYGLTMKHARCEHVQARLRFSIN

Series [2] concerns Streptococcus sp. 'group A'. Briefly: growth inhibition of control SK(-) GAS strain, dose response, counter-screen for streptokinase expression inhibitor project, luminescence, kanamycin, BacTiterGlo, confirmation (AID 1900). Format: functional, organism-based. (In general: The purpose of a counterscreen is to sort out artefacts and off-target activity.)
The target of another series is T2, Streptokinase A (Streptococcus pyogenes serotype M1, UniProt P10520).
T2 sequence (P10520 whole entry): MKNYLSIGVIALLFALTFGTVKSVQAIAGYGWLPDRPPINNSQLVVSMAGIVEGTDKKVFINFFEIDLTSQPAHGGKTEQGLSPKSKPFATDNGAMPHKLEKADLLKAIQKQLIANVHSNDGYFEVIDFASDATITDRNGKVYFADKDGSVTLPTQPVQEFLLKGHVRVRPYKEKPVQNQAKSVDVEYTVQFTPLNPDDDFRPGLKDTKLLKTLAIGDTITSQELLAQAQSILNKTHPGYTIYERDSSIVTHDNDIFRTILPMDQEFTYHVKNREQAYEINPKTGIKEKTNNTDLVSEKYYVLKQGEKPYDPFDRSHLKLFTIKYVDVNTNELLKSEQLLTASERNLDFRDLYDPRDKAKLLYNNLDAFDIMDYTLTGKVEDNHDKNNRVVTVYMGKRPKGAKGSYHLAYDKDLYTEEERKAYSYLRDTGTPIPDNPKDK
Briefly: S. pyogenes streptokinase expression inhibitors, potency, dose response, plasminogen activation absorbance, OD405 (AID 1914).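 Also: secreted streptokinase activity via plasminogen activation per viability signal from cell pellet.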 Format: functional, Streptococcus pyogenes M1 GAS.

The subject of a further series is Streptococcus. Briefly: Group A Streptococcus viability loss, dose response, counter-screen for streptokinase expression inhibitor project, luminescence, BacTiterGlo (AID 1915).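 Also: potency for reduction of bacterial viability or growth.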 The class given is functional, organism-based.
The nature of series [3]: Luminescence Cell-Based Dose Retest to Confirm Inhibitors of Cancer Stem Cells. [Related pubchem assays (depositor defined):AID2717, AID2721]. Format: functional. The note with it: Homo sapiens.
The test system of another series is H4. Briefly: Luminescence Cell-Based Dose Response HTS to Identify Activators of 5'UTR Stem-Loop Driven Prion Protein mRNA Translation in H4 Neuroglioblastoma Cells. [Related pubchem assays: 1829 (Project Summary), 1814 (Primary HTS)]. The class given is functional. The note with it: Homo sapiens.
The next series concerns the target Cytochrome P450 2C19 (Homo sapiens, UniProt P33261). Briefly: Cytochrome panel assay with activity outcomes. Panel member name: p450-cyp2c19 Compounds with AC50 equal or less than 10 uM are considered active. Format: functional.

In general, AC50 refers to the midpoint of the concentration-response curve, whichever way the signal moves. As usually defined, the CC50 is the concentration giving 50% cytotoxicity. In general, EC50 refers to the concentration that produces a half-maximal response.

Sequence of Cytochrome P450 2D6 (P10635 whole entry): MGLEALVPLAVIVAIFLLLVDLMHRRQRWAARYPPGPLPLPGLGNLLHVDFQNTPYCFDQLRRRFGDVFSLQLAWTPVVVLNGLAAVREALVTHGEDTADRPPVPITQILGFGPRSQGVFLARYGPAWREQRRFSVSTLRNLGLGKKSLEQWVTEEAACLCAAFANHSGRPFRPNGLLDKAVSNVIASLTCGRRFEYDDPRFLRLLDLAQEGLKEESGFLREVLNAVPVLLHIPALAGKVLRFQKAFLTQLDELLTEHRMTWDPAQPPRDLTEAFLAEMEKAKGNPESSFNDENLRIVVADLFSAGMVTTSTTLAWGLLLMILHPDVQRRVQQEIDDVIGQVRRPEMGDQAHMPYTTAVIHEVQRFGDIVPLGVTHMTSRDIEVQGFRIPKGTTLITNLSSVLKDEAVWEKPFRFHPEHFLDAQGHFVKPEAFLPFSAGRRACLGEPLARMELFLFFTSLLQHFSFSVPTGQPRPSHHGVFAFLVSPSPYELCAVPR
Sequence of Cytochrome P450 2C19 (P33261 whole entry): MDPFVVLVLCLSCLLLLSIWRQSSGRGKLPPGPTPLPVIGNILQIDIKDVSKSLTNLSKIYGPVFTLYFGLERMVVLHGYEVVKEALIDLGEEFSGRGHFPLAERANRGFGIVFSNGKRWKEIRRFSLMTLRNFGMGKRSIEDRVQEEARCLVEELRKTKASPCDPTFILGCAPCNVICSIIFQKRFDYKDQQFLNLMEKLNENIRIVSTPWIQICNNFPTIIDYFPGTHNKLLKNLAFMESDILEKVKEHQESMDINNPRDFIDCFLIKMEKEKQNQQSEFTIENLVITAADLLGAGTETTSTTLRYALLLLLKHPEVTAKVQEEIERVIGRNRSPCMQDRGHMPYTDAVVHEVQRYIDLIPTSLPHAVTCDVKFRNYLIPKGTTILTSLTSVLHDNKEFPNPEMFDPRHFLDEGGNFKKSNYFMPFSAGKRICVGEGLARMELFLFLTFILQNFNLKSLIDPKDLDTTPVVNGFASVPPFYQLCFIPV
Sequence of Cytochrome P450 3A4 (P08684 whole entry): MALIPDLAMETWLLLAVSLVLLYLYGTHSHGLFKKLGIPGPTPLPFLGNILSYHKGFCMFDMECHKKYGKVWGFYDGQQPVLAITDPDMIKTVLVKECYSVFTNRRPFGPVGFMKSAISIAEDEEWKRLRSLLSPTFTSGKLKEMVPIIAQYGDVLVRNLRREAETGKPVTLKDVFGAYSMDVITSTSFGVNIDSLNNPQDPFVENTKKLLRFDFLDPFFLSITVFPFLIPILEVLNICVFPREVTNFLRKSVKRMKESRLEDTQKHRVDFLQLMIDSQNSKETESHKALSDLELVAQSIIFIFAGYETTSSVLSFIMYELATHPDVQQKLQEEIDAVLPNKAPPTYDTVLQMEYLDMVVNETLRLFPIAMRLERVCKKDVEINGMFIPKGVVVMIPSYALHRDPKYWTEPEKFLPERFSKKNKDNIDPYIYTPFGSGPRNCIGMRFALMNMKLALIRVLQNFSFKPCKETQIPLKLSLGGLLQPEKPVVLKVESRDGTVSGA
Sequence of Cytochrome P450 2C9 (P11712 whole entry): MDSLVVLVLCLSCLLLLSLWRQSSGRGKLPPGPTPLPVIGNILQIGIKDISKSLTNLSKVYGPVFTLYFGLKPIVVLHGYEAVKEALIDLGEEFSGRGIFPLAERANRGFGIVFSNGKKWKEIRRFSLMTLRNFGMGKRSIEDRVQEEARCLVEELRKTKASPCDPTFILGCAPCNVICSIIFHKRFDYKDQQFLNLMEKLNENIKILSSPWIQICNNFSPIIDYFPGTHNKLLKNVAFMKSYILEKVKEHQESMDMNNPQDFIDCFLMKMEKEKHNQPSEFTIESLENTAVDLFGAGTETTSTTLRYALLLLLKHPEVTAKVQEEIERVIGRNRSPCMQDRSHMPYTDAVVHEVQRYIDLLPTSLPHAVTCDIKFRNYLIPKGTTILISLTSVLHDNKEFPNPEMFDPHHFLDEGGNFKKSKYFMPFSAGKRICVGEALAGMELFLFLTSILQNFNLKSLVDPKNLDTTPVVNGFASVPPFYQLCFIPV

For `COC(=O)CSc1nnc(C)n1-c1cccc(OC)c1`, the AC50 on Cytochrome P450 2D6 is 3.16 µM (inconclusive).
Still for that read-out and setting: the value for `COc1cccc(-c2cncnc2Nc2ccc(F)cc2)c1` was 39.8 µM (inconclusive).
With `COc1cccc(C2=CC(c3ccc(OC)c(OC)c3OC)n3nnnc3N2)c1` (stereo not drawn), the CC50 in series [1] is 6.56 µM (active).
For `Fc1ccccc1OCCCCSc1ncccn1`, the AC50 on Cytochrome P450 2D6 was 17.8 µM (inconclusive).
On to `Cc1ccc(-c2ccc(=O)n(CC(=O)NCc3ccco3)n2)cc1`, for which the AC50 on Cytochrome P450 2D6 is 22.4 µM (inconclusive); at Cytochrome P450 1A2, 15.8 µM (inconclusive); at Cytochrome P450 3A4 it was 25.1 µM (inconclusive).
Turning to `O=S(=O)(c1ccccc1)N1CCC2(CCCN(c3ccccc3)C2)CC1`, the AC50 on Cytochrome P450 2D6 was 10 µM (inconclusive).
As for `CC(C)(C)OC(=O)[C@H](Cc1ccccc1)NC(=O)c1[nH]cnc1C(=O)Nc1ccc(Cl)cc1`, the values for the EC50 (in series [2]; on Streptokinase A; in the series on Streptococcus) were 3.71 µM (active), 21.5 µM (active) and 11.1 µM (active), respectively. In addition, in [3], the AC50 was 4.51 µM (active).
For `Cc1cc(OC(=O)CCCNC(=O)OC(C)(C)C)c2c3c(c(=O)oc2c1)CCC3`, the AC50 at Cytochrome P450 2D6 is 15.8 µM (inconclusive).
The same measure, in the same setting: the value for `COc1cccc(Cn2c(=O)cnc3cnc(Oc4cccc(Cl)c4)nc32)c1` was 39.8 µM (inconclusive).
With `Cc1ccc2c(c1)C(c1ccc([N+](=O)[O-])cc1)=NNC(c1ccc(Br)cc1)=N2`, the CC50 in series [1] is 14.7 µM (active).
The same measure, in the same setting: the value for `CCCOc1ccc(NC(=O)CC2C(=O)N(CC)C(=S)N2CCCN2CCN(Cc3ccccc3)CC2)cc1` (stereo not drawn) was 14.3 µM (active).
As to `O=C(NCc1ccccc1)c1cccc(COc2cccc(Cl)c2)c1`, the AC50 on Cytochrome P450 2D6 is 31.6 µM (inconclusive).
Take `O=C(c1ccc(S(=O)(=O)c2cccc(Cl)c2)c([N+](=O)[O-])c1)N1CCN(Cc2ccccc2)CC1`: the CC50 in series [1] is 6.34 µM (active).
Regarding `Nc1ccccc1Sc1nc2ccccc2[nH]1`, the EC50 in series [2] was 21.3 µM (active); on Streptokinase A, > 150 µM (not active); in the series with Streptococcus, > 150 µM (not active).
As for `c1cncc(-c2cncnc2NCc2cccs2)c1`, at Cytochrome P450 2D6, the AC50 was 39.8 µM (inconclusive).
Regarding `COc1cc2sc3ccc(-c4ccc5[nH]ccc5c4)cc3c(=O)c2cc1OC`, the EC50 in the series with H4 is > 120 µM (not active).
Take `COc1ccc(C2c3c(ncn(CCN4CCOCC4)c3=N)Oc3ccc4ccccc4c32)cc1OC` (stereo not drawn): the AC50 at Cytochrome P450 2C19 (read-out: AC50) was 25.1 µM (inconclusive); on Cytochrome P450 2D6, 15.8 µM (inconclusive).
With `CCCn1c(N)c(C(=O)CSc2nc(C)cs2)c(=O)n(C)c1=O`, the AC50 was 20 µM (inconclusive) at Cytochrome P450 2D6 and 28.2 µM (inconclusive) on Cytochrome P450 2C9.
With `O=C(/C(=N\Nc1ccc([N+](=O)[O-])cc1)Sc1nnnn1-c1ccccc1)c1ccccc1`, the EC50 is 5.19 µM (active) in series [2], > 150 µM (not active) at Streptokinase A and 35.8 µM (active) in the series with Streptococcus.
On to `N#Cc1nc(-c2cccc3ccccc23)oc1NCC1CCCO1` (stereo not drawn), for which the CC50 in series [1] is 21.7 µM (active).
For `C[C@]12CC[C@@H]3c4ccc(OC(=O)c5ccccc5)cc4CC[C@H]3[C@@H]1CC[C@@H]2O` [ESTRADIOL BENZOATE], the EC50 in series [2] was 2.24 µM (active); on Streptokinase A, 2.43 µM (active); in the series with Streptococcus, 4.49 µM (active).
Take `Cc1ccc2c(CC(=O)N3CCc4ccccc43)coc2c1`: in the series with H4, the EC50 is 18.5 µM (active).
Regarding `COc1cc2c(cc1NC(=O)CSc1nnnn1-c1ccccc1)oc1ccccc12`, the CC50 in [1] is 15.6 µM (active).
Still for that read-out and setting: the value for `CC(C)N(CC(N)=O)c1ncnc2sc(-c3ccccc3)cc12` was 25.9 µM (active).
Take `c1ccc(-c2cc(-c3ccncc3)nc3ccc4ccccc4c23)cc1`: the EC50 in series [2] is 3.37 µM (active); at Streptokinase A, > 150 µM (not active); with Streptococcus it was 8.51 µM (active). The AC50 in [3] is 3.39 µM (active).
For the compound `O=C(O)CC[P+](c1ccccc1)(c1ccccc1)c1ccccc1`, the AC50 entry was “inconclusive” on Cytochrome P450 2C19 and 3.98 µM (inconclusive) on Cytochrome P450 2D6.
